Here are results for 14 molecules from patent US7205305B2, “Inhibitors of p38” (Vertex Pharmaceuticals Incorporated, priority 1996, dated 2007).

In assay [1] the test system is TNF production in LPS-stimulated PBMCs. The assay is described as follows: Inhibition of TNF production in LPS-stimulated PBMCs ("cell"). It is filed as cell-based, human. Put shortly:
(§1)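 Human PBMCs (4.8×10^6 cells/ml, RPMI1640/10% FBS) pre-treated with inhibitor dilutions, then stimulated with 4 ng/ml LPS final and incubated overnight (12–15 h) at 37 °C/5% CO2. Supernatant IL-1β and TNF-α measured by ELISA; IC50 from dose-response curves.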

The target of a further assay is activated p38 (Homo sapiens, UniProt Q16539). Briefly: Inhibition of phosphorylation of EGF receptor peptide ("kinase"). The assay is classed as biochemical. The settings on record: inhibition of phosphorylation of EGF receptor peptide by activated p38. Put shortly:
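Activated p38 was preincubated with inhibitor for 15 min at room temperature in 100 mM HEPES pH 7.6, 10 mM MgCl2, 25 mM β-glycerophosphate, 10% glycerol, 5% DMSO final. Reaction used 200 μM EGF receptor peptide and 100 μM ATP for 30 min at 30° C. TFA-quenched phosphopeptide was quantified by reverse-phase HPLC.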

Assay [2] relates to TNF production in whole blood. Briefly: Inhibition of TNF production in LPS-stimulated whole blood ("WB"). The assay is classed as cell-based, human. The method, boiled down:
(§2)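 Anticoagulated whole blood was preincubated with serially diluted compound, then stimulated with 4 ng/ml LPS (final) overnight (12–15 h) at 37° C/5% CO2. Supernatant IL-1b, TNF-α and IL-6 were measured by ELISA and IC50 derived from dose-response curves.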

In assay [3] the test system is IL-1 production in LPS-stimulated PBMCs. Briefly: Inhibition of IL-1 production in LPS-stimulated PBMCs ("cell"). It is filed as cell-based, human. Put shortly: as §1
Assay [4] relates to IL-1 production in whole blood. Briefly: Inhibition of IL-1 production in LPS-stimulated whole blood ("WB"). It is filed as cell-based, human. The method, boiled down: as §2
In assay [5] the test system is IL-6 production in whole blood. The assay is described as follows: Inhibition of IL-6 production in LPS-stimulated whole blood ("WB"). It is filed as cell-based, human. Put shortly:
as §2

As usually defined, the IC50 is the concentration needed to halve the response being measured.

Where two headings read alike, the source gives them in different places.

Sequence of activated p38 (Q16539 whole entry): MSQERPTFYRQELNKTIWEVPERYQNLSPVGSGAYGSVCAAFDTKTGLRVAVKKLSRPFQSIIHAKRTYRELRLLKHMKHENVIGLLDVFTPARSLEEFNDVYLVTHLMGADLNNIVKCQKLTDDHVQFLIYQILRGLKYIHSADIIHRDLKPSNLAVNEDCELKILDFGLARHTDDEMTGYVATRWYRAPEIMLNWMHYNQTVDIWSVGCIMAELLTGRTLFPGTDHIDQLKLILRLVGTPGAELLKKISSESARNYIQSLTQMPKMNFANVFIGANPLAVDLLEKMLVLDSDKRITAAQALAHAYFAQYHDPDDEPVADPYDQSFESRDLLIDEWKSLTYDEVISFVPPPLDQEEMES

For `Nc1ccc(Cl)c(C2=C3C=CC(Sc4ccc(F)cc4)=NN3CNC2=O)c1Cl` [Compound 125], the IC50 is at most 100 nM in assay [1] (Homo sapiens, PBMC); at most 100 nM on activated p38; at least 500 nM in assay [2] (Homo sapiens); at most 100 nM in assay [3] (Homo sapiens, PBMC); at least 500 nM in assay [4] (Homo sapiens); at least 500 nM in assay [5] (Homo sapiens).

Regarding `O=C1NCN2N=C(Sc3ccc(F)cc3Cl)C=CC2=C1c1c(Cl)cccc1Cl` [Compound 127], the half-inhibitory concentration (IC50) is at most 100 nM in assay [1] (Homo sapiens, PBMC); at most 100 nM against activated p38; 250 to 500 nM in assay [2] (Homo sapiens); at most 100 nM in assay [3] (Homo sapiens, PBMC); 250 to 500 nM in assay [4] (Homo sapiens); at most 250 nM in assay [5] (Homo sapiens).

Turning to `O=C1NCN2N=C(Sc3ccc(F)cc3)C=CC2=C1c1cc2c(cc1Cl)OCO2` [Compound 129], the concentration for half-maximal inhibition (IC50) is at most 100 nM in assay [1] (Homo sapiens, PBMC); at most 100 nM against activated p38; at least 500 nM in assay [2] (Homo sapiens); at most 100 nM in assay [3] (Homo sapiens, PBMC); 250 to 500 nM in assay [4] (Homo sapiens); 250 to 500 nM in assay [5] (Homo sapiens).

Turning to `COc1cc(Cl)c(C2=C3C=CC(Sc4ccc(F)cc4)=NN3CNC2=O)cc1O` [Compound 135], the IC50 in assay [1] (Homo sapiens, PBMC) is at least 500 nM; against activated p38, at most 100 nM; in assay [2] (Homo sapiens) it was at least 500 nM; in assay [3] (Homo sapiens, PBMC) it was 100 to 500 nM; in assay [4] (Homo sapiens), at least 500 nM; in assay [5] (Homo sapiens), at least 500 nM.

`O=C1NCN2N=C(Sc3ccc(F)cc3Cl)C=CC2=C1c1cc2c(cc1Cl)OCO2` [Compound 136]: the IC50 in assay [1] (Homo sapiens, PBMC) is at most 100 nM; against activated p38, at most 100 nM; in assay [2] (Homo sapiens), at least 500 nM; in assay [3] (Homo sapiens, PBMC), at most 100 nM; in assay [4] (Homo sapiens) it was at least 500 nM; in assay [5] (Homo sapiens) it was 250 to 500 nM.

As for `Nc1ccc(C2=C3C=CC(Sc4ccc(F)cc4)=NN3CNC2=O)c(Cl)c1` [Compound 137], the IC50 is 100 to 500 nM in assay [1] (Homo sapiens, PBMC); at most 100 nM at activated p38; at least 500 nM in assay [2] (Homo sapiens); at most 100 nM in assay [3] (Homo sapiens, PBMC); at least 500 nM in assay [4] (Homo sapiens); 250 to 500 nM in assay [5] (Homo sapiens).

Consider `O=C1C(c2c(Cl)cccc2Cl)=C2C=CC(Sc3ccc(F)cc3)=NN2CN1CO` [Compound 138], for which the 50% inhibitory concentration (IC50) is 100 to 500 nM in assay [1] (Homo sapiens, PBMC); 100 to 1000 nM against activated p38; at least 500 nM in assay [2] (Homo sapiens); at most 100 nM in assay [3] (Homo sapiens, PBMC); at least 500 nM in assay [4] (Homo sapiens); at most 250 nM in assay [5] (Homo sapiens).

Take `COc1ccc(C2=C3C=CC(Sc4ccc(F)cc4)=NN3CNC2=O)c(Cl)c1` [Compound 139]: the IC50 in assay [1] (Homo sapiens, PBMC) was at least 500 nM; on activated p38, at most 100 nM; in assay [2] (Homo sapiens) it was at least 500 nM; in assay [3] (Homo sapiens, PBMC), at most 100 nM; in assay [4] (Homo sapiens) it was at least 500 nM; in assay [5] (Homo sapiens) it was at least 500 nM.

Take `CN(C)/C=N\c1ccc(C2=C3C=CC(Sc4ccc(F)cc4Cl)=NN3CNC2=O)c(Cl)c1` [Compound 140]: the IC50 in assay [1] (Homo sapiens, PBMC) is at most 100 nM; against activated p38 it was at most 100 nM; in assay [2] (Homo sapiens) it was at least 500 nM; in assay [3] (Homo sapiens, PBMC), at most 100 nM; in assay [4] (Homo sapiens), 250 to 500 nM; in assay [5] (Homo sapiens), 250 to 500 nM.

Regarding `O=C(CCl)Nc1ccc(C2=C3C=CC(Sc4ccc(F)cc4)=NN3CNC2=O)c(Cl)c1` [Compound 141], the IC50 was at most 100 nM in assay [1] (Homo sapiens, PBMC); at most 100 nM against activated p38; at least 500 nM in assay [2] (Homo sapiens); at most 100 nM in assay [3] (Homo sapiens, PBMC); at least 500 nM in assay [4] (Homo sapiens); at least 500 nM in assay [5] (Homo sapiens).

Take `CC(=O)Nc1ccc(C2=C3C=CC(Sc4ccc(F)cc4)=NN3CNC2=O)c(Cl)c1` [Compound 143]: the IC50 is 100 to 500 nM in assay [1] (Homo sapiens, PBMC); at most 100 nM against activated p38; at least 500 nM in assay [2] (Homo sapiens); at most 100 nM in assay [3] (Homo sapiens, PBMC); at least 500 nM in assay [4] (Homo sapiens); at least 500 nM in assay [5] (Homo sapiens).

For `O=C(CN1CCOCC1)Nc1ccc(C2=C3C=CC(Sc4ccc(F)cc4)=NN3CNC2=O)c(Cl)c1` [Compound 144], the concentration for half-maximal inhibition (IC50) was 100 to 500 nM in assay [1] (Homo sapiens, PBMC); at most 100 nM at activated p38; at least 500 nM in assay [2] (Homo sapiens); at most 100 nM in assay [3] (Homo sapiens, PBMC); at least 500 nM in assay [4] (Homo sapiens); 250 to 500 nM in assay [5] (Homo sapiens).

On to `O=C1NCN2N=C(Sc3ccc(F)cc3Cl)C=CC2=C1c1cc2c(cc1Cl)OCO2` [Compound 145], for which the IC50 was at most 100 nM in assay [1]; at most 100 nM against activated p38; at most 250 nM in assay [2]; at most 100 nM in assay [3]; at most 250 nM in assay [4]; at most 250 nM in assay [5].

On to `NC(=O)C(c1ccc(Sc2ccccc2)cn1)c1c(Cl)cccc1Cl` (stereo not drawn) [Compound 201], for which the IC50 is at least 500 nM in assay [1] (Homo sapiens, PBMC); 100 to 1000 nM at activated p38; at most 250 nM in assay [2] (Homo sapiens); at least 500 nM in assay [3] (Homo sapiens, PBMC); at least 500 nM in assay [4] (Homo sapiens); at least 500 nM in assay [5] (Homo sapiens).
